This is an account of results in PMC7259758 (PLoS ONE, 2020).

The target of assay [1] is T1, SF3B1 (Homo sapiens, UniProt O75533+Q7RTV0).
T1 construct: endogenous in cells
The experiment in a line: Competitive antagonist assay (TESLR in the presence of SD6 or hit compound). The format is cell-based. The note with it: 1 h pre-treatment with analog, then 4 μM SD6 for another 4 hours; read-out: IC50 for antagonism of SD6 activity in the TESLR assay. As for the experimental part: SK-MEL-2/Luc-MDM2 stable cells were plated at a density of 20,000 cells/well in 96-well plates and incubated overnight at 37°C in 5% CO2.[27, 28] The following day, cells were treated with 14 analogs using serial dilution for one hour. The list of compounds screened as potential TESLR antagonists are show in SI file. After one-hour pre-treatment, 4 μM of SD6 were added to the pre-treated cells for another 4 hours. Either 0.5% DMSO or serial dilutions of SD6 were used to treat cells for 4 hours as controls. At the end of incubation time, ONE-Glo™ EX reagents (Promega) were added to measure the luciferase activity. […]
Fig 6 Competitive antagonist assay. (Left Panel) The assay that identified two antagonists of SD6 activity in the TESLR screen, which are useful for the determination of SF3B1 binding. Relative luminescent units were plotted against corresponding drug concentrations and fitted with a standard four parameter sigmoidal curve with GraphPad Prism. (Right Panel) The structures of the antagonists and SD6. See SI for chemistry details.
. SK-MEL-2/Luc-MDM2 stable cells were plated at a density of 20000/well in 96-well plates and incubated overnight at 37°C in 5% CO2. […]. After one-hour pre-treatment, serial dilutions of the sudemycinol C were added to the pre-treated cells for another 4 hours. […]. At the end of incubation time, ONE-Glo™ EX reagents (Promega) were added to measure the luciferase activity. […]. DR: dose response.

For assay [2], the system named is triple-exon skipping of MDM2 pre-mRNA in SK-MEL-2/Luc-MDM2 cells. As to the kind of experiment: TESLR (Triple Exon Skipping Luciferase Reporter) dose response. To be noted: for TESLR Maximum fold change: SK-MEL-2/Luc-MDM2 cells, 4 hours, luciferase activity. (In general: Reporter assays use an easily measured gene product as a stand-in for the process of interest.)
Protocol: SK-MEL-2/MDM2-Luc stable cells were cultured in MEM medium with Earle's salts and L-glutamine containing 1 mM sodium pyruvate, 10% FCS and 10 mM Hepes and plated at a density of 10,000/well in 96-well plates and incubated overnight at 37°C in 5% CO2. The following day, cells were treated with serial dilutions of compounds for 4 hrs, ONE-Glo reagents (Promega) were added to measure the luciferase activity on an EnVision plate reader. SD6 and 0.5% DMSO were used as positive and negative controls, respectively. Relative luminescent units were plotted against corresponding drug concentrations and fitted with a standard four parameter sigmoidal curve with GraphPad Prism.
The TESLR assay in SK-MEL-2/Luc-MDM2 cells with 4 hour treatment. SK-MEL-2/Luc-MDM2 stable cells were plated at a density of 20,000 cells/well in 96-well plates and incubated overnight at 37°C in 5% CO2. The following day, cells were treated with either 0.5% DMSO or serial dilution of hits identified from the library screen in 0.5% DMSO for 4 hours. ONE-Glo™ EX reagent (Promega) was added to measure the luciferase activity using an EnVision plate reader. Relative luminescent units were plotted against corresponding drug concentrations and fitted with a standard four parameter sigmoidal curve with GraphPad Prism.
SK-MEL-2/Luc-MDM2 stable cells were plated at a density of 20,000 cells/well in 96-well plates and incubated overnight at 37°C in 5% CO2. The following day, cells were treated with serial dilutions of the indicated compounds for 4 hours and ONE-Glo™ EX reagents (Promega) were added to measure the luciferase activity.

Assay [3] deals with CLK1. Also noted: method as in PMID 29191878. The note with it: chemoproteomic analysis; read-out: affinity for CLK1 (IC50); cited from earlier work.
[4] abbreviates: Homo sapiens, SK-MEL-2, 4 h, read-out: TESLR IC50 in inducing triple exon skipping.

Where two headings read alike, the source gives them in different places.

As for `CC(C=CC1CC2(CO2)CC(C)(C)O1)=CCC1CCC(NC(=O)C=CC(C)O)CC1` (stereo not shown) [Sudemycinol C, sudemycinol C], the IC50 (as a rule, the concentration needed to halve the response being measured) in assay [1] was 0.97 µM.
Still for that read-out and setting: in the case of `CC(C=CC1CC2(CO2)CC(C)(C)O1)=CCC1OCC(NC(=O)C=CC(C)O)CO1` (stereo not shown) [Sudemycinol E, sudemycinol E] it was 16.1 µM.
On to `CN1CC[C@H](c2c(O)cc(O)c3c(=O)cc(-c4ccccc4Cl)oc23)[C@H](O)C1` [flavopiridol], for which, in assay [2] (setting [4]), the IC50 was more than 10 µM.
As to `CC(=O)c1c(C)c2cnc(Nc3ccc(N4CCNCC4)cn3)nc2n(C2CCCC2)c1=O` [palbociclib], the IC50 is approximately 291 µM in assay [2] (Homo sapiens, SK-MEL-2, 4 h, read-out: TESLR IC50 (as printed in Fig 5)); 10 to 300 µM in assay [2] (setting [4]); 0.276 µM in assay [3]. Also, the “TESLR Maximum fold change” value in assay [2] stood at 2.92.
Consider `O=C(O)c1ccc2c(c1)nc(Nc1cccc(Cl)c1)c1ccncc12` [silmitasertib], for which, in assay [2] (Homo sapiens, SK-MEL-2, 4 h, read-out: TESLR EC50), the EC50 (in general, the concentration that produces a half-maximal response) stood at 19.9 µM. The IC50 in assay [2] (setting [4]) lay within 10 to 300 µM. For the same compound, the “TESLR Maximum fold change” value in assay [2] is 31.5.
